Article PMC3027604, “Spermine oxidase (SMO) activity in breast tumor tissues and biochemical analysis of the anticancer spermine analogues BENSpm and CPENSpm” (2010)

Key:
[1] = target: T1, spermine oxidase (mSMO) (Mus musculus, UniProt Q99K82); test: enzyme inhibition of recombinant mSMO with Spm as substrate, Dixon plot; assay type: biochemical
T1 construct: gene Smox; Murine recombinant SMO

[2] = target: T1, spermine oxidase (mSMO); test: enzyme inhibition of mSMO, Ki in Table […] (reference inhibitor; assay not detailed in Methods); assay type: biochemical; details: cited from earlier work

T1 sequence (Q99K82 whole entry): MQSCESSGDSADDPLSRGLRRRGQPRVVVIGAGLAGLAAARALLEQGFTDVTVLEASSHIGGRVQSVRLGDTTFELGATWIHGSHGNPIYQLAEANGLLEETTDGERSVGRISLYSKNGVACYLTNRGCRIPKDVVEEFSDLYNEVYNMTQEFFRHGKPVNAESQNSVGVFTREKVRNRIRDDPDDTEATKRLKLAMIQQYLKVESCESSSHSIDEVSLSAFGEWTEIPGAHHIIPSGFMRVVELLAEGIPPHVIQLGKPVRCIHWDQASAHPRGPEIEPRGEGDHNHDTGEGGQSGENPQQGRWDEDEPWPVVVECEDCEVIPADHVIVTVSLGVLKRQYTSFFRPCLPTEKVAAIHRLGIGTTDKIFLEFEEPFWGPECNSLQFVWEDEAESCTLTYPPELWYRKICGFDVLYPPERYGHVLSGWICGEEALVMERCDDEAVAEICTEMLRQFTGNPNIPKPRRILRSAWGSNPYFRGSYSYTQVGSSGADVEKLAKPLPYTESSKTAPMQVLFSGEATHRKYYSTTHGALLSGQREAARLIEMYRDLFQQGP

| Compound | Ki [1] [µM] | Ki [2] [µM] |
| --- | --- | --- |
| CCNCCCNCCCNCCCNCC [BENSpm] | 380 | – |
| CCNCCCNCCCNCCCNCC1CC1 [CPENSpm, N^1-ethyl-N^11-(cyclopropyl)-methyl-4,8-diazaundecane] | 85 | – |
| C=C=CCNCCCCNCC=C=C [MDL72527, N^1, N^4-bis(2,3-butadienyl)-1,4butanediamine] | – | 63 |
